Assay results taken from ChEMBL document CHEMBL1201862, “PubChem BioAssay data set” (2004).
Active and inactive are the calls of the source.

Columns and labels:
[1] = HPDE-C7 pancreatic duct cell viability loss – fluorescence, HTS (AID 430); format: functional, cell-based; details: Homo sapiens
[2] = decrease of insulin promoter-GFP reporter – imaging, high-content screening, mouse beta cells (AID 1628); format: functional; details: MIN6
[3] = MIN6 cell viability loss – mouse insulinoma, cytotoxicity control, dose response (AID 2122); format: functional;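 further: confirmatory high-throughput counterscreen run to flag cytotoxic compounds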
[4] = viability of HCT116 lacking mutant beta-catenin – cell-based, human colon tumor, dose response (AID 1045); format: functional;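 further: HCT116 colon tumor cells with beta catenin knocked out; cells exposed to compound for 60 hours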
INS1 = assay: INS-1E survival protection against cytokine death – cell-based, luminescence, retest, dose response (AID 449756); format: functional; details: Rattus norvegicus;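 further: cell death triggered by IL-1 beta plus TNF-alpha plus IFN-gamma mixture; protective hits raise ATP signal compared with cytokine alone wells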
[5] = viability of PTEN-deleted HCT116 cells – cell-based, HCT116 PTEN knockout, dose response (AID 1047); format: functional;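 further: HCT116 colon tumor cells with PTEN knocked out; cells exposed to compound for 60 hours before readout; potency for loss of cell viability measured by luminescence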
Nonstructural protein 1 = Nonstructural protein 1 (Influenza A virus, UniProt Q194T2); format: functional, Influenza A virus (A/California/07/2009(H1N1))
Sequence of Nonstructural protein 1 (Q194T2 whole entry): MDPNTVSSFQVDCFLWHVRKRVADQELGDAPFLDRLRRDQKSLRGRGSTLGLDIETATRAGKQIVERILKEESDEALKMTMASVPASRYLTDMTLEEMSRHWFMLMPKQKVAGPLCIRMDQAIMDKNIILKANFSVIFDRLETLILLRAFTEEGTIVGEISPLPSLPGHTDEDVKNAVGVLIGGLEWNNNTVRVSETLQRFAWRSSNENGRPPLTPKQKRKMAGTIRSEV

[6] = viability loss of HPDE-C7K cells – cell-based, fluorescence, HTS, primary screen (AID 431); format: functional; details: Homo sapiens
[7] = biological target: Heat shock protein HSP 90-alpha (Homo sapiens, UniProt P07900); assay: Luminescence-based dose response biochemical high throughput screening assay for inhibitors of the Heat Shock Protein 90 (HSP90). [Related pubchem assays: 1831 (Summary AID.), 1846 (Confirmation screen.), 1789 (Primary screen.)]
[8] = biological target: Voltage-gated inwardly rectifying potassium channel KCNH2 (Homo sapiens, UniProt Q12809); assay: concentration-dependent hERG rescue from blockers – cell-based, thallium flux, dose response (AID 2121); format: ADME
Sequence of Voltage-gated inwardly rectifying potassium channel KCNH2 (Q12809 whole entry): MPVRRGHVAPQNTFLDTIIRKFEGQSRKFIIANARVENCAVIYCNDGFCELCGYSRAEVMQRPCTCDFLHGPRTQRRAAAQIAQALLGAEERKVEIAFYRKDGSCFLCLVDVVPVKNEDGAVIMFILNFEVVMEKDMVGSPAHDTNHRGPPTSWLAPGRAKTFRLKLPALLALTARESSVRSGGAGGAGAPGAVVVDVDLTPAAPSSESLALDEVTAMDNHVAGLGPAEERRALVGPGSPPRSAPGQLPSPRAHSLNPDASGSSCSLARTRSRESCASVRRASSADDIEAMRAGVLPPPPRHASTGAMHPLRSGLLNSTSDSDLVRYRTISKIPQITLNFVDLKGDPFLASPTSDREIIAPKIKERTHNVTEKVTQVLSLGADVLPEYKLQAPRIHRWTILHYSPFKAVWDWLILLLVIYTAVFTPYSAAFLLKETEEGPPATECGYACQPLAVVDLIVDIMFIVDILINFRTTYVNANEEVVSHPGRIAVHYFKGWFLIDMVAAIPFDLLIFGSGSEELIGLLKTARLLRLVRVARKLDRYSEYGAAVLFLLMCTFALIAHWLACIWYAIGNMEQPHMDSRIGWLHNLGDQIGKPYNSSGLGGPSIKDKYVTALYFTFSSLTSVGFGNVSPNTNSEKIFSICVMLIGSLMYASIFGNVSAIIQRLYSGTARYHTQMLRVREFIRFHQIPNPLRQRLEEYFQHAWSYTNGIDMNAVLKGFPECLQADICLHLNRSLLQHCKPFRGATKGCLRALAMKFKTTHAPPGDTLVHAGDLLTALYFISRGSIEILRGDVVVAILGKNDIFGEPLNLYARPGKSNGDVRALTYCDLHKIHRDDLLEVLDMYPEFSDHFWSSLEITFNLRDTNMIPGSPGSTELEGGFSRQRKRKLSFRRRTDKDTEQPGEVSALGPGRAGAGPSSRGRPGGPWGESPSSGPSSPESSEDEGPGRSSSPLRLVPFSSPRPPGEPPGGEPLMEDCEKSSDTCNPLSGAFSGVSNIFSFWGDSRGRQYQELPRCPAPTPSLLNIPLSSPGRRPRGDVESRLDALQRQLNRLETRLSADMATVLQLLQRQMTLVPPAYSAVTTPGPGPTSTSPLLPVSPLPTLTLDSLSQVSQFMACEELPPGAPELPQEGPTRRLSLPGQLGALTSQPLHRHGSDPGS

Mucolipin-3 = biological target: T1, Mucolipin-3 (Homo sapiens, UniProt Q8TDD5); assay: Dose response cell-based high-throughput screening assay for agonists of the transient receptor potential channel ML3 (TRPML3). [Related pubchem assays: 1526, 1424, 1448 ]; format: functional
T1 sequence (Q8TDD5 whole entry): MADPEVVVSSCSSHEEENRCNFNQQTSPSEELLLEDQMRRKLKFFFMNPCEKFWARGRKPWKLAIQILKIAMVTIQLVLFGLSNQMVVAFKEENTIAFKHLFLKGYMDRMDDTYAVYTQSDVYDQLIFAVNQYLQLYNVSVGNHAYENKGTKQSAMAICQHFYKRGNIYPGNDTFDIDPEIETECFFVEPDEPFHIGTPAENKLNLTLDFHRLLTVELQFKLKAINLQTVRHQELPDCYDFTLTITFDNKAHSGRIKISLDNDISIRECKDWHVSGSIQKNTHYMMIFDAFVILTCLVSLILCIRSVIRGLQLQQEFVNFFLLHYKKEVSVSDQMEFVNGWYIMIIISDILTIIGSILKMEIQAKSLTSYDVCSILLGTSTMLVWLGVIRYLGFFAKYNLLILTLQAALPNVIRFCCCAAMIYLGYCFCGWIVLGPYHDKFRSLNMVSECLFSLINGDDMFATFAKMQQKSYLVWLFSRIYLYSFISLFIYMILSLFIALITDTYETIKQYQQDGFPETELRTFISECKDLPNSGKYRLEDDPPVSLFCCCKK

Ion channel NompC = Ion channel NompC (Danio rerio, UniProt Q7T1G6); assay: Fluorescence counterscreen assay for TRPML3 agonists: dose response cell-based high-throughput screening assay to identify agonists of the transient receptor potential channel N1 (TRPN1). [Related pubchem assays: 1526, 1424, 1448 ]; format: functional
Sequence of Ion channel NompC (Q7T1G6 whole entry): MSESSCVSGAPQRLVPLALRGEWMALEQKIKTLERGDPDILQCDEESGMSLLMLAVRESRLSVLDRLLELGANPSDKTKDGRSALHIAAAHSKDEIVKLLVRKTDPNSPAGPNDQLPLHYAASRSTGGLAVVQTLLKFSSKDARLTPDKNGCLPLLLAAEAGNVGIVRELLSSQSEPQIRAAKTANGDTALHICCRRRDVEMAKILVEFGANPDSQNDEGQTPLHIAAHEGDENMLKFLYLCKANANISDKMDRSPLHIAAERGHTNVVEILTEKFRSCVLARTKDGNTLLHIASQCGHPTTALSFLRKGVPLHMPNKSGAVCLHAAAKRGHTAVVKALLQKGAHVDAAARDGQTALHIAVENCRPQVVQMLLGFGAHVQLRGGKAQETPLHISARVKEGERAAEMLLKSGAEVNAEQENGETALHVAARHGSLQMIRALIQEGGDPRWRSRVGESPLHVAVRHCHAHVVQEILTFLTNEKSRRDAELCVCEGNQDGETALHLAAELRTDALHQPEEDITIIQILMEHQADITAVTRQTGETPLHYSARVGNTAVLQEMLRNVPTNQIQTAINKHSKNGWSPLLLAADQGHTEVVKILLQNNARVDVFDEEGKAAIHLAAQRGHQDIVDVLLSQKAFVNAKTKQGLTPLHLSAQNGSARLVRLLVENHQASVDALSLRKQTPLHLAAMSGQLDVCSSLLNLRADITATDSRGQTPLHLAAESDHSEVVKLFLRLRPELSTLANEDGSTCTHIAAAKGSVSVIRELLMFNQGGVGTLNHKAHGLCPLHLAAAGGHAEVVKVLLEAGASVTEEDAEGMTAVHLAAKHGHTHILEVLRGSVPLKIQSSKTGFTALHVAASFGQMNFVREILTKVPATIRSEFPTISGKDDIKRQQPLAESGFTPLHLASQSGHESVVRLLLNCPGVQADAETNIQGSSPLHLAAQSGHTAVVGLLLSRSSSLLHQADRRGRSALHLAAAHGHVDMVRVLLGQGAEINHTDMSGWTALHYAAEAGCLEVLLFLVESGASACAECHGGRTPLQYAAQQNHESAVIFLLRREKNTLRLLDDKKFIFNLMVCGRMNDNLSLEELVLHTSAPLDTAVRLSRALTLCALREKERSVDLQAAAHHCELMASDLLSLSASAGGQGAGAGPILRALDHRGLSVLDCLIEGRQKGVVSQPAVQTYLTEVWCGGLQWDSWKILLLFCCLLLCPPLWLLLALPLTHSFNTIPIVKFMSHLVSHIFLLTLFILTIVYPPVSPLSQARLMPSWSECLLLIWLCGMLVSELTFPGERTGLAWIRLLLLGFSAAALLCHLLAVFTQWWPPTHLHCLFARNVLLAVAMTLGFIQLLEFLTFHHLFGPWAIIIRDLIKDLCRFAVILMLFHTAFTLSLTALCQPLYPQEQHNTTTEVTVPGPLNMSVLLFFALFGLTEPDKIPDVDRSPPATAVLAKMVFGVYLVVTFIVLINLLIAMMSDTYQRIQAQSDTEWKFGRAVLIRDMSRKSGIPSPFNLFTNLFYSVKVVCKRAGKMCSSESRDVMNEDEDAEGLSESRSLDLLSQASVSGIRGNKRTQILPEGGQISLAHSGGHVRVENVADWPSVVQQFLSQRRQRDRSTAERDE

Bcl-2-like protein 10 = biological target: T2, Bcl-2-like protein 10 (Homo sapiens, UniProt Q9HD36); assay: Bcl-B/TR3 peptide binding disruption – biochemical, fluorescence polarization, FITC-TR3 peptide, selectivity assay for Bfl-1 inhibitor project, primary screen (AID 748);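 further: fluorescence polarization from a fluorescein-labelled TR3 peptide binding purified Bcl-B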
T2 sequence (Q9HD36 whole entry): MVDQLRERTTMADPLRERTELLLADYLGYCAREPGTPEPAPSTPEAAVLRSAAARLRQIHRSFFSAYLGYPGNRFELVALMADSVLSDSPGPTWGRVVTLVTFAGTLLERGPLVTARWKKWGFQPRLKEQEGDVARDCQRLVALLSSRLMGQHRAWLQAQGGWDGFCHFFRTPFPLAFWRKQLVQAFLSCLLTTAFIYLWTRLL

Estrogen receptor beta = Estrogen receptor beta (Homo sapiens, UniProt Q92731); assay: blockers of SRC-3 recruitment to ERβ – biochemical, ELISA, streptavidin-HRP readout, orthogonal assay, confirmation (AID 1060)
Sequence of Estrogen receptor beta (Q92731 whole entry): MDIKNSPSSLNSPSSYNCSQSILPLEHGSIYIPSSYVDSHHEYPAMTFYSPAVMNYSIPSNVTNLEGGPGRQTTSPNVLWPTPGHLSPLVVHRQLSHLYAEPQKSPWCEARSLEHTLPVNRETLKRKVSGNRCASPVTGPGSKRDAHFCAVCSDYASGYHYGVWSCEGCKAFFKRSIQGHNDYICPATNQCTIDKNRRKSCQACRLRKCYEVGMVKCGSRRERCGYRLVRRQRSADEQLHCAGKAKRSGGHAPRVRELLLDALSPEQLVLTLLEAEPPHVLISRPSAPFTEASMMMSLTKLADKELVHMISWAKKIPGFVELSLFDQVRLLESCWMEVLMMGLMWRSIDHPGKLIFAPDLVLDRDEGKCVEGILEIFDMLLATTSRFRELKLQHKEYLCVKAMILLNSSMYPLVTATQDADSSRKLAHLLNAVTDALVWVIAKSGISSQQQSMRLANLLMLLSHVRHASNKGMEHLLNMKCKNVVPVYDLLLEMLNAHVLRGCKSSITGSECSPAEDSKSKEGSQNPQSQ

[9] = Luminescence-based cell-based high throughput dose response assay to identify activators of the DAF-12 from the parasite S. stercoralis (ssDAF-12).; format: functional
[10] = biological target: T3, Oxysterols receptor LXR-beta (Homo sapiens, UniProt P55055); assay: LXR agonists, Gal4 luciferase reporter, dose response, counter-screen for ssDAF-12 agonist project, cell-based, luminescence, HEK293, S. stercoralis campaign (AID 720737); format: functional; details: read-out: IC50 (the source's name)
T3 sequence (P55055 whole entry): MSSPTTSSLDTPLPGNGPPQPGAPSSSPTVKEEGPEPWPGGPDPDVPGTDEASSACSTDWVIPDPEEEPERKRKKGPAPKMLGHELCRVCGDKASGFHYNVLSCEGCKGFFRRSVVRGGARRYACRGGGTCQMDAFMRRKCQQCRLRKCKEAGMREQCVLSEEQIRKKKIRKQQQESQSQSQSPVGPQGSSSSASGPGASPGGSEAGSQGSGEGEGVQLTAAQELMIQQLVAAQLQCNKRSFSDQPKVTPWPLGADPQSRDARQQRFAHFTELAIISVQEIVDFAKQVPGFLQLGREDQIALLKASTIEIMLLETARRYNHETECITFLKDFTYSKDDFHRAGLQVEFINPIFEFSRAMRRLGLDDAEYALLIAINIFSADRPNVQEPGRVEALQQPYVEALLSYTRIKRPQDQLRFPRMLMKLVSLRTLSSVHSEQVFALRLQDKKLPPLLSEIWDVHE

[11] = alpha-synuclein stem-loop translation blockers – luminescence, H4 neuroglioblastoma cells, dose confirmation, confirmation (AID 2454); format: functional, cell-based;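 further: H4 neuroglioblastoma cells carrying an alpha-synuclein 5'UTR luciferase reporter; potency for inhibition of the luciferase signal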
[12] = blockers of HIV-1 envelope-mediated cell-cell fusion – cherry-pick, dose response (AID 652057); format: functional, cell-based
[13] = HIV-1 AD8 envelope cell-cell fusion blockers – cherry-pick, dose response (AID 652062); format: functional, cell-based;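 further: luciferase signal from cell-cell fusion driven by HIV-1 clade B AD8 Env; potency is for inhibitors of fusion seen as a drop in luminescence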
[14] = luciferase reporter signal reduction – luminescence, H4-C neuroglioblastoma cells, dose response (AID 2458); format: functional, cell-based;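 further: H4 neuroglioblastoma cells stably carrying a luciferase reporter gene fusion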
[15] = HEK-293T viability loss, compound-treated – cell-based, uHTS hits, cytotoxicity control for B/T-cell NF-kB inhibitor project, dose response (AID 489019); format: functional;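 further: IC50 reflects cytotoxicity as loss of cell viability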
[16] = off-target signal loss in HeLa-CEM21 co-culture – HeLa F-luc CTL cells, cherry-picked, counter-screen for HIV-1 Env fusion inhibitor project, dose response (AID 652040); format: functional, cell-based;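 further: potency for signal decrease marking cytotoxic or nonspecific inhibition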
Jurkat = assay: blockers of NF-kB activation in T cells – Jurkat, luciferase reporter, luminescence, B- and T-cell, dose response (AID 489004); format: functional, cell-based; details: Homo sapiens;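 further: NF-kB luciferase reporter Jurkat cells stimulated with PMA plus ionomycin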
[17] = blockade of melanocortin 4 receptor signaling – cell-based, plate reader, cherry pick, counter-screen for LGR2 antagonist project, dose response (AID 743444); format: functional;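 further: transfected HEK 293 cells stimulated with alpha-MSH peptide; potency of inhibitors of the alpha-MSH evoked signal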
[18] = blockers of bursicon-stimulated LGR2 cAMP reporter – cell-based, HEK293, CRE-luciferase reporter, cherry pick, set 2, dose response (AID 743343); format: functional;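 further: transfected cells were stimulated with diluted bursicon conditioned medium after compound addition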
cells = format: functional, cell-based
[19] = alpha-synuclein stem-loop luciferase translation blockers – H4 neuroglioma cells, luminescence, confirmation (AID 1988); format: functional, cell-based
[20] = blockers of HIV-1 ZM109 envelope-driven cell-cell fusion – HeLa effector, CEM target cells, luciferase, cherry-pick, dose response (AID 652058); format: functional, cell-based;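 further: luciferase signal from HIV-1 Env mediated cell-cell fusion of effector and target cells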
[21] = biological target: T4, Tyrosine-protein phosphatase non-receptor type 7 (Homo sapiens, UniProt P35236); assay: HePTP tyrosine phosphatase activity blockers – biochemical, absorbance, leukemia target, primary screen (AID 521); format: functional
T4 sequence (P35236 whole entry): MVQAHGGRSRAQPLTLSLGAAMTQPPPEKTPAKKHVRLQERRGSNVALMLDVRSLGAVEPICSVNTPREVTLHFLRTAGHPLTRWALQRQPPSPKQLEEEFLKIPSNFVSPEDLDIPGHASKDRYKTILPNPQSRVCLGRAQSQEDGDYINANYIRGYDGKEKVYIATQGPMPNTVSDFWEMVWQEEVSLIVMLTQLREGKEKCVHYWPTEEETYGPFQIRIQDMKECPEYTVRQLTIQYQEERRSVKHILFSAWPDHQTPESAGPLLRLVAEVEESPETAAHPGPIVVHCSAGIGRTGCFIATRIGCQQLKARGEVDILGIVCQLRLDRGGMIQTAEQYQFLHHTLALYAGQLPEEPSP

Estrogen receptor = Estrogen receptor (Homo sapiens, UniProt P03372);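 further: potency for inhibiting coactivator peptide recruitment to the receptor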
Sequence of Estrogen receptor (P03372 whole entry): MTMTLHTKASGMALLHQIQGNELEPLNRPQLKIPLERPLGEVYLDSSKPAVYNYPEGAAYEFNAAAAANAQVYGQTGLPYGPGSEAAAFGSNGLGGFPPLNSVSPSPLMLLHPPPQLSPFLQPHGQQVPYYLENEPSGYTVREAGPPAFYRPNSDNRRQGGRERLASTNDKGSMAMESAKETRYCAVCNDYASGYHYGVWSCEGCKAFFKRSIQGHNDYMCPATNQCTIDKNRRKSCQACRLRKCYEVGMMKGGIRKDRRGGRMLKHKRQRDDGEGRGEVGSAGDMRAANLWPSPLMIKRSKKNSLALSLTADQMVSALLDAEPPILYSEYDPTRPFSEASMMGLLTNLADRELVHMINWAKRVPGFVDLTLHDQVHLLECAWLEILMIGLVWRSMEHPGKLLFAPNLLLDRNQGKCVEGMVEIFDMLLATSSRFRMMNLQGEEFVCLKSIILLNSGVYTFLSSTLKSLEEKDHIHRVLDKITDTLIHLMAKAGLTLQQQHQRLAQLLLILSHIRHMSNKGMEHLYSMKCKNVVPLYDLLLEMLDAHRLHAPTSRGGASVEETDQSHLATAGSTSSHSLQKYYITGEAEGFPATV

CCOC(=O)C(C(C)=O)c1c(Br)c(O)c(O)c2c(C(=O)c3ccc(C)cc3)coc12 (stereo unspecified)
EC50 [1]: 3.41 µM (active)
IC50 [2]: 4.26 µM (active)
IC50 [3]: 3.43 µM (active)
EC50 [4]: 15.8 µM (active)
AC50 (INS1): 3.56 µM (active)
EC50 [5]: 18.8 µM (active)
IC50 (Nonstructural protein 1): > 100 µM (active)
EC50 [6]: 3.75 µM (active)

Cc1ccc(OCc2ccc(C(=O)O)o2)cc1C
IC50 [7]: 1.75 µM (active)

CS(=O)(=O)c1sc(C(=O)NC(=S)Nc2ccc(OC(F)(F)F)cc2)c2c1C=CCC2
EC50 [8]: 1.01 µM (active)

Cc1ccc(S(=O)(=O)Nc2cc(C(F)(F)F)ccc2N2CCOCC2)c(C)c1
EC50 (Mucolipin-3): 2.48 µM (active)
EC50 (Ion channel NompC): > 29.9 µM (not active)

COc1ccc(NC(=O)c2noc3c2CCC3)cc1
IC50 (Bcl-2-like protein 10): 12.6 µM (active)
IC50 (Estrogen receptor beta): < 0.023 µM (not active)

COc1cc(SC)ccc1C(=O)Nc1ccc2c(c1)CCC2
IC50 [9]: > 67.5 µM (inactive)
EC50 [10]: > 67.5 µM (inactive)

Cc1ccc(C(=O)CN2C(=O)c3ccccc3S2(=O)=O)cc1
EC50 [11]: 0.363 µM (active)
AC50 [12]: 1.81 µM (active)
AC50 [13]: 4.12 µM (active)
EC50 [14]: 0.263 µM (active)
IC50 [15]: > 80 µM (inactive)
IC50 [7]: 4.64 µM (active)
AC50 [16]: 3.11 µM (active)
IC50 (Jurkat): 1.57 µM (active)
AC50 [17]: 0.548 µM (active)
AC50 [18]: 0.594 µM (active)
EC50 (cells): 0.315 µM (active)
EC50 [19]: < 0.1 µM (active)
AC50 [20]: 17.9 µM (active)

N=c1c2c3c(sc2ncn1CCN1CCOCC1)CCCC3
IC50 [21]: > 100 µM (not active)

Cc1cc(NC(=O)CSc2nc3c(c(=O)n2CCc2ccccc2)SC(C)C3)no1 (stereo unspecified)
IC50 (Estrogen receptor): 33.6 µM (not active)
